The values below come from PubChem BioAssay (NCI).

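Grown in 96-well plates, cells were treated for 48 hours with each compound at five concentrations. Insufficient inhibition: endpoint recorded as highest concentration tested. GI50 = concentration required for 50% inhibition of growth. Definition used: TGI = concentration required for complete inhibition of growth.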

Among the test systems are IGROV1 ovarian; A498 renal; SW-620 colon; OVCAR-3 ovarian; ACHN renal; OVCAR-8 ovarian; OVCAR-4 ovarian; COLO 205 colon; MOLT-4 leukemia; MDA-MB-231 breast.
Common to all, as to experiment: inhibition of tumour cell growth, NCI panel, 48 h

As to `CC[C@H](C)[C@H](NC(=O)C12CC(NC(C)=O)(C1)C2)C(=O)N(C)[C@H](C[C@@H](OC(C)=O)c1nc(C(=O)N[C@@H](Cc2ccccc2)C[C@H](C)C(=O)OC)cs1)C(C)C`, the GI50 with IGROV1 ovarian was 502 nM; in the experiment with A498 renal it was 234 nM; with SW-620 colon, 85.4 nM; in the experiment on OVCAR-3 ovarian, 49.4 nM; with ACHN renal, 1130 nM; in the experiment on OVCAR-8 ovarian it was 519 nM. The GI50 was 885 nM with OVCAR-4 ovarian, 99.1 nM in the experiment with COLO 205 colon, 748 nM in the experiment on MOLT-4 leukemia and 439 nM in the experiment with MDA-MB-231 breast. Further, the TGI with IGROV1 ovarian was greater than 16700 nM; with A498 renal it was 1580 nM; with SW-620 colon it was greater than 16700 nM; with OVCAR-3 ovarian, 569 nM; with ACHN renal, greater than 16700 nM; in the experiment on OVCAR-8 ovarian, greater than 16700 nM. For the same molecule, the TGI in the experiment on OVCAR-4 ovarian is greater than 16700 nM; with COLO 205 colon, 1060 nM; in the experiment on MOLT-4 leukemia it was greater than 16700 nM; with MDA-MB-231 breast, greater than 16700 nM.
Regarding `CCCCCc1c(C)[nH]c(/C=c2\[nH]/c(=C3/C=c4ccccc4=N3)cc2OC)c1C`, the GI50 is 265 nM in the experiment on IGROV1 ovarian; 94.4 nM in the experiment on A498 renal; 34.1 nM in the experiment with SW-620 colon; 109 nM in the experiment with OVCAR-3 ovarian; 122 nM in the experiment with ACHN renal; 297 nM in the experiment with OVCAR-8 ovarian. Further, the GI50 is 68.7 nM with OVCAR-4 ovarian, 56.8 nM in the experiment with COLO 205 colon, 102 nM in the experiment with MOLT-4 leukemia and 26.6 nM in the experiment on MDA-MB-231 breast. Also, the TGI with IGROV1 ovarian was found to be 5250 nM; in the experiment on A498 renal, 1750 nM; in the experiment on SW-620 colon, 2840 nM; in the experiment on OVCAR-3 ovarian, 699 nM; in the experiment with ACHN renal it was 1290 nM; in the experiment with OVCAR-8 ovarian, 1670 nM. Also, the TGI in the experiment on OVCAR-4 ovarian is 16300 nM; in the experiment on COLO 205 colon it was 494 nM; in the experiment with MOLT-4 leukemia, 3850 nM; in the experiment with MDA-MB-231 breast it was 232 nM.
With `CCN1C(=O)N(CC)C2C1NN=c1s/c(=C\c3ccccc3)c(=O)n12` (stereo not drawn), the GI50 with IGROV1 ovarian is 298 nM; in the experiment on A498 renal, 23.8 nM; in the experiment on SW-620 colon it was 80.8 nM; in the experiment on OVCAR-3 ovarian it was 56.1 nM; in the experiment with ACHN renal, 199 nM; in the experiment on OVCAR-8 ovarian, 426 nM. Besides, the GI50 is 869 nM in the experiment on OVCAR-4 ovarian, 193 nM in the experiment on COLO 205 colon, 420 nM with MOLT-4 leukemia and 416 nM in the experiment on MDA-MB-231 breast. Moreover, the TGI is greater than 100000 nM in the experiment with IGROV1 ovarian; 147 nM in the experiment on A498 renal; greater than 100000 nM in the experiment on SW-620 colon; 354 nM with OVCAR-3 ovarian; greater than 100000 nM in the experiment on ACHN renal; greater than 100000 nM in the experiment on OVCAR-8 ovarian. The TGI is greater than 100000 nM in the experiment on OVCAR-4 ovarian, 657 nM in the experiment on COLO 205 colon, greater than 100000 nM in the experiment on MOLT-4 leukemia and greater than 100000 nM in the experiment on MDA-MB-231 breast.
As for `COc1cc2c3c(c1O)C1(C=CC(=O)C=C1)CC3N(C)CC2` (stereo not drawn), the TGI is 25400 nM in the experiment on IGROV1 ovarian; 48400 nM in the experiment on A498 renal; 18300 nM with SW-620 colon; 22900 nM with OVCAR-3 ovarian; 43400 nM in the experiment on ACHN renal; 38400 nM with OVCAR-8 ovarian. The TGI in the experiment with OVCAR-4 ovarian was greater than 100000 nM; in the experiment on COLO 205 colon, 18200 nM; in the experiment with MOLT-4 leukemia, 37300 nM; in the experiment with MDA-MB-231 breast, 17400 nM.
Consider `O=C1c2ccccc2C(=O)c2sc(Nc3ccc(Cl)c(Cl)c3)nc21`, for which the TGI in the experiment with IGROV1 ovarian was 10100 nM; with A498 renal, 31600 nM; in the experiment on SW-620 colon, 3190 nM; with OVCAR-3 ovarian, 6300 nM; in the experiment with ACHN renal, 3170 nM; with OVCAR-8 ovarian, 8020 nM. Further, the TGI came to 5690 nM in the experiment with OVCAR-4 ovarian, 15400 nM in the experiment on COLO 205 colon, 6370 nM with MOLT-4 leukemia and 6820 nM in the experiment on MDA-MB-231 breast.
Regarding `O=C(Nc1ccc(S(=O)(=O)NC2CCCCCC2)cc1)C(c1ccccc1)S(=O)(=O)c1ccc(F)cc1` (stereo not drawn), the GI50 in the experiment on IGROV1 ovarian was 237 nM; in the experiment with A498 renal it was 870 nM; in the experiment with SW-620 colon, 84 nM; in the experiment with OVCAR-3 ovarian it was 367 nM; in the experiment with ACHN renal, 153 nM; in the experiment with OVCAR-8 ovarian, 702 nM. Moreover, the values for the GI50 in the experiment on OVCAR-4 ovarian, in the experiment on MOLT-4 leukemia and in the experiment on MDA-MB-231 breast were 444 nM, 432 nM and 350 nM, respectively. The TGI amounted to 2890 nM with IGROV1 ovarian; 2080 nM with A498 renal; 1980 nM in the experiment with SW-620 colon; 2850 nM in the experiment on OVCAR-3 ovarian; 491 nM with ACHN renal; 4680 nM in the experiment on OVCAR-8 ovarian. Further, the figures for the TGI in the experiment with OVCAR-4 ovarian, in the experiment on MOLT-4 leukemia and with MDA-MB-231 breast were 4160 nM, greater than 100000 nM and 1940 nM, respectively.
`NC(=O)NC(=O)C1CCCCC1C(=O)O` (stereo not drawn): the TGI in the experiment with IGROV1 ovarian, in the experiment on A498 renal, with SW-620 colon, in the experiment on OVCAR-3 ovarian, with ACHN renal and in the experiment on OVCAR-8 ovarian was greater than 100000 nM in each case. Also, the TGI in the experiment on OVCAR-4 ovarian, in the experiment on COLO 205 colon and with MDA-MB-231 breast was greater than 100000 nM in each case.
With `CCNCCNc1cc(-c2cccc(C(F)(F)F)c2)c(C#N)c2nc3ccccc3n12`, the GI50 was 1720 nM with IGROV1 ovarian; 1640 nM with A498 renal; 390 nM in the experiment on SW-620 colon; 1260 nM in the experiment with OVCAR-3 ovarian; 1320 nM in the experiment with ACHN renal; 1690 nM in the experiment with OVCAR-8 ovarian. Moreover, the figures for the GI50 with OVCAR-4 ovarian, with COLO 205 colon and in the experiment with MDA-MB-231 breast were 1600 nM, 557 nM and 1670 nM, respectively. For the same molecule, the TGI was 3490 nM in the experiment with IGROV1 ovarian; 3080 nM with A498 renal; 1510 nM with SW-620 colon; 2620 nM with OVCAR-3 ovarian; 2900 nM with ACHN renal; 3230 nM in the experiment with OVCAR-8 ovarian. For the same molecule, the values for the TGI with OVCAR-4 ovarian, with COLO 205 colon and in the experiment on MDA-MB-231 breast were 3240 nM, 1990 nM and 3290 nM, respectively.
With `CCOC(=O)C(Cc1ccc(OC)cc1)C(=O)OCC`, the GI50 in the experiment on IGROV1 ovarian was 3460 nM; in the experiment on A498 renal, 6540 nM; in the experiment with OVCAR-3 ovarian it was 3590 nM; in the experiment on ACHN renal it was 7330 nM; in the experiment on OVCAR-8 ovarian it was 5240 nM; with OVCAR-4 ovarian, 6230 nM. Moreover, the GI50 in the experiment with COLO 205 colon was 7230 nM; with MOLT-4 leukemia, 3200 nM; with MDA-MB-231 breast, 7870 nM. For the same molecule, the TGI with IGROV1 ovarian amounted to 14300 nM; in the experiment with A498 renal it was 21400 nM; in the experiment on OVCAR-3 ovarian, 11600 nM; with ACHN renal it was 22300 nM; in the experiment with OVCAR-8 ovarian, 32500 nM; with OVCAR-4 ovarian, 26500 nM. Moreover, the TGI stood at 19700 nM in the experiment on COLO 205 colon, 11000 nM in the experiment on MOLT-4 leukemia and 27300 nM in the experiment with MDA-MB-231 breast.
